Key:
PDE9A [1] = target: T1, PDE9A (Homo sapiens, UniProt O76083); conditions: concentrations of up to 100 [mu]M; cited from earlier work
PDE1C = target: T2, PDE1C (Homo sapiens, UniProt Q14123); assay: PDE enzymatic activity assay (SPA), PDE1C, cAMP as substrate; assay type: biochemical; conditions: ratio IC50 PDE1C / IC50 PDE9A; for illustrative purposes
T2 construct: made in house; host or cells: SF9 insect cells (crude lysate used as enzyme source)
Experimental: (§1) The PDE enzymatic activity assays were run as SPA, in general according to the protocol of the manufacturer (Amersham Biosciences, product number: TRKQ 7100). As enzyme source, lysate (PBS with 1% Triton X-100 supplemented with protease inhibitors, cell debris removed by centrifugation at 13.000 rpm for 30 min) of SF 9 cell expressing the human PDE of interest was used. The total protein amount included in the assay varied upon infection and production efficacy of the SF9 cells and lay in the range of […].
(§2) In general, the assay conditions were as follows: • total assay volume: 40 μl • protein amount: 0.1-50 ng • substrate concentration (cGMP or cAMP): 20 nM; ˜1 mCi/l • incubation time: 60 min at room temperature • final DMSO concentration: 1%
(§3) The assays were run in 384-well format. The test reagents as well as the enzyme and the substrate were diluted in assay buffer. The assay buffer contained 50 mM Tris, 8.3 mM MgCl2, 1.7 mM EGTA, 0.1% BSA, 0.05% Tween 20; the pH of assay buffer was adjusted to 7.5. In case activity of PDE1C was analysed, 50 nM Calmodulin and 3 mM CaCl2 were included in the assay buffer. In case PDE9 activity was analyzed, the reaction was stopped by applying a PDE9 specific inhibitor (e.g. compounds according to WO2004/099210). PDE1C was analysed with cAMP as substrate, and PDE9 was analyzed with cGMP as substrate.
(§4) IC50 can be calculated in a conventional way, eventually with the help of GraphPadPrism or other suited software setting the positive control as 100 and the negative control as 0. For calculation of IC50 usually 8 dilutions of the test compound ([…]) are to be selected and tested following the aforementioned protocol.

PDE9A [2] = target: T1, PDE9A; assay: PDE enzymatic activity assay (SPA), PDE9A; assay type: biochemical; set-up: made in house; host or cells: SF9 insect cells (crude lysate used as enzyme source); conditions: cGMP substrate, for illustrative purposes; for inhibition at 10 µM: 10 micromolar; for IC50: given as ranges
Experimental: as §1, §2, §3
Calculation of % Inhibition:
The activity of the positive control (minus the negative control=background) is set to 100% and activity in the presence of test compound is expressed relative to these 100%.
Within this setting, an inhibition above 100% might be possible due to the nature of the variation of the positive control within the assay, however, in this case the reported % inhibition had been adjusted to 100%.
as §4

T1 sequence (O76083 whole entry): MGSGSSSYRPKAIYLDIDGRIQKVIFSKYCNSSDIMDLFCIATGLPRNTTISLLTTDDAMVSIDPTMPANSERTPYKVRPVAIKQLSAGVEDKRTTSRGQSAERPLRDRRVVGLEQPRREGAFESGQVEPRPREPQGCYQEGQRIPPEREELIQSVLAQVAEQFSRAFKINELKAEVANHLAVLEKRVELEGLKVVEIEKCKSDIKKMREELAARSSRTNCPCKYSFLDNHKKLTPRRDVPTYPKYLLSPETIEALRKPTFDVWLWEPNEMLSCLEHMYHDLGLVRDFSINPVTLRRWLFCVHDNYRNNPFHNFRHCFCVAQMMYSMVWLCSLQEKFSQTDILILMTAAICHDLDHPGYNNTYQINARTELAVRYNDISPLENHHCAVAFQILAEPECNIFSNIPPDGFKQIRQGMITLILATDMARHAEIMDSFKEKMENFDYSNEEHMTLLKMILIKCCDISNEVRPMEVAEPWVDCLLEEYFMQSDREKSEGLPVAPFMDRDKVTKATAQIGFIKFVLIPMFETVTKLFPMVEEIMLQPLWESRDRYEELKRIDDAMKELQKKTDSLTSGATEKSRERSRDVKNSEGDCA

| Compound | inhibition on the isolated enzyme (human PDE9A) (PDE9A [1]) | Selectivity = IC50 PDE 1C/IC50 PDE9A (both nanomolar) (PDE1C) | inhibition at 10 µM (PDE9A [2]) [%] | IC50 (PDE9A [2]) [nM] |
| --- | --- | --- | --- | --- |
| CC(=O)Nc1ccc(-c2c[nH]c(=O)cn2)cc1 [SKF94120] | no inhibition | – | – | – |
| COc1ccc(C2CNC(=O)C2)cc1OC1CCCC1 (stereo not shown) [rolipram] | no inhibition | – | – | – |
| O=c1[nH]c(Cc2ccccc2OC(F)(F)F)nc2c1cnn2-c1cc(F)ccc1Cl [Example 5, 1-(2-Chloro-5-fluoro-phenyl)-6-(2-trifluoromethoxy-benzyl)-1,5-dihydro-pyrazolo[3,4-d]pyrimidin-4-one] | – | 7 | 96 | 10 to 500 |
| O=c1[nH]c(Cc2ccccc2OC(F)(F)F)nc2c1cnn2-c1ccc(F)cc1O [Example 31, 1-(2-Hydroxy,4-fluoro-phenyl)-6-(2-trifluoromethoxy-benzyl)-1,5-dihydro-pyrazolo[3,4-d]pyrimidin-4-one] | – | 8 | 82 | > 500 |
| COc1c(F)cccc1-n1ncc2c(=O)[nH]c(Cc3ccccc3OC(F)(F)F)nc21 [Example 30, 1-(2-Methoxy,3-fluoro-phenyl)-6-(2-trifluoromethoxy-benzyl)-1,5-dihydro-pyrazolo[3,4-d]pyrimidin-4-one] | – | 8 | 95 | 10 to 500 |
| CCOC(=O)C1=C[C@]2(CC)CCCN3CCc4c(n1c1ccccc41)[C@@H]32 [vinpocetine] | no inhibition | – | – | – |
| Cc1cccc(Cl)c1-n1ncc2c(=O)[nH]c(Cc3ccccc3OC(F)(F)F)nc21 [Example 24, 1-(2-Chloro-6-methyl-phenyl)-6-(2-trifluoromethoxy-benzyl)-1,5-dihydro-pyrazolo[3,4-d]pyrimidin-4-one] | – | 49 | 87 | > 500 |
| OCCN(CCO)c1nc(N2CCCCC2)c2nc(N(CCO)CCO)nc(N3CCCCC3)c2n1 [dipyridamole] | no inhibition | – | – | – |
| CCOc1ccc(Cl)c(-n2ncc3c(=O)[nH]c(Cc4ccccc4OC(F)(F)F)nc32)c1 [Example 20, 1-(2-Chloro-5-ethoxy-phenyl)-6-(2-trifluoromethoxy-benzyl)-1,5-dihydro-pyrazolo[3,4-d]pyrimidin-4-one] | – | 4 | 87 | 10 to 500 |
| O=c1[nH]c(Cc2ccccc2OC(F)(F)F)nc2c1cnn2-c1ccc(F)cc1Cl [Example 13, 1-(2-Chloro-4-fluoro-phenyl)-6-(2-trifluoromethoxy-benzyl)-1,5-dihydro-pyrazolo[3,4-d]pyrimidin-4-one] | – | 10 | 96 | 10 to 500 |
| O=C(c1ccc(Cl)c(-n2ncc3c(=O)[nH]c(Cc4ccccc4OC(F)(F)F)nc32)c1)N1CCCCC1 [Example 35, 1-[2-Chloro-5-(piperidine-1-carbonyl)-phenyl]-6-(2-trifluoromethoxy-benzyl)-1,5-dihydro-pyrazolo[3,4-d]pyrimidin-4-one] | – | 10 | 93 | 10 to 500 |
| CCOc1cc(Cl)c(-n2ncc3c(=O)[nH]c(Cc4ccccc4OC(F)(F)F)nc32)cc1C [Example 27, 1-(2-Chloro-4-ethoxy-5-methyl-phenyl)-6-(2-trifluoromethoxy-benzyl)-1,5-dihydro-pyrazolo [3,4-d]pyrimidin-4-one] | – | 14 | 67 | > 500 |
| Cc1ccc(C)c(-n2ncc3c(=O)[nH]c(Cc4ccccc4OC(F)(F)F)nc32)c1 [Example 18, 1-(2,5-Dimethyl-phenyl)-6-(2-trifluoromethoxy-benzyl)-1,5-ihydro-pyrazolo[3,4-d]pyrimidin-4-one] | – | 28 | 86 | 10 to 500 |
| O=c1[nH]c(Cc2ccccc2OC(F)(F)F)nc2c1cnn2-c1cc(Br)ccc1Cl [Example 6, 1-(5-Bromo-2-chloro-phenyl)-6-(2-trifluoromethoxy-benzyl)-1,5-dihydro-pyrazolo[3,4-d]pyrimidin-4-one] | – | 112 | 88 | 10 to 500 |
| Cc1cc(F)ccc1-n1ncc2c(=O)[nH]c(Cc3ccccc3OC(F)(F)F)nc21 [Example 17, 1-(4-Fluoro-2-methyl-phenyl)-6-(2-trifluoromethoxy-benzyl)-1,5-dihydro-pyrazolo[3,4-d]pyrimidin-4-one] | – | 9 | 98 | 10 to 500 |
| O=C(O)c1cccc(-n2ncc3c(=O)[nH]c(Cc4ccccc4OC(F)(F)F)nc32)c1 [Example 30-1, 1-(3-Carbox-phenyl)-6-(2-trifluoromethoxy-benzyl)-1,5-dihydro-pyrazolo[3,4-d]pyrimidin-4-one] | – | 55 | 101 | 10 to 500 |
| CN(C)C(=O)c1ccc(Cl)c(-n2ncc3c(=O)[nH]c(Cc4ccccc4OC(F)(F)F)nc32)c1 [Example 36, 1-[2-Chloro-5-(dimethylamino-carbonyl)-phenyl]-6-(2-trifluoromethoxy-benzyl)-1,5-dihydro-pyrazolo[3,4-d]pyrimidin-4-one] | – | 54 | 98 | 10 to 500 |
| O=c1[nH]c(Cc2ccccc2OC(F)(F)F)nc2c1cnn2-c1c(Cl)cccc1Cl [Example 25, 1-(2,6-Dichloro-phenyl)-6-(2-trifluoromethoxy-benzyl)-1,5-dihydro-pyrazolo[3,4-d]pyrimidin-4-one] | – | 24 | 58 | > 500 |
| Cc1ccc(Br)c(-n2ncc3c(=O)[nH]c(Cc4ccccc4OC(F)(F)F)nc32)c1 [Example 10, 1-(2-Bromo-5-methyl-phenyl)-6-(2-trifluoromethoxy-benzyl)-1,5-dihydro-pyrazolo[3,4-d]pyrimidin-4-one] | – | 7 | 88 | > 500 |
| COc1ccc(Cl)c(-n2ncc3c(=O)[nH]c(Cc4ccccc4OC(F)(F)F)nc32)c1 [Example 22, 1-(2-Chloro-5-methoxy-phenyl)-6-(2-trifluoromethoxy-benzyl)-1,5-dihydro-pyrazolo[3,4-d]pyrimidin-4-one] | – | 14 | 98 | 10 to 500 |
| Cc1ccc(Cl)c(-n2ncc3c(=O)[nH]c(Cc4ccccc4OC(F)(F)F)nc32)c1 [Example 3, 1-(2-Chloro-5-methyl-phenyl)-6-(2-trifluoromethoxy-benzyl)-1,5-dihydro-pyrazolo[3,4-d]pyrimidin-4-one] | – | 4 | 95 | 10 to 500 |
| Cc1ccc(Cl)cc1-n1ncc2c(=O)[nH]c(Cc3ccccc3OC(F)(F)F)nc21 [Example 15, 1-(5-Chloro-2-methyl-phenyl)-6-(2-trifluoromethoxy-benzyl)-1,5-dihydro-pyrazolo[3,4-d]pyrimidin-4-one] | – | 271 | 94 | 10 to 500 |
| O=c1[nH]c(Cc2ccccc2OC(F)(F)F)nc2c1cnn2-c1cccc(F)c1 [Example 26, 1-(3-Fluoro-phenyl)-6-(2-trifluoromethoxy-benzyl)-1,5-dihydro-pyrazolo[3,4-d]pyrimidin-4-one] | – | 24 | 51 | > 500 |
| CC(=O)Nc1cccc(-n2ncc3c(=O)[nH]c(Cc4ccccc4OC(F)(F)F)nc32)c1 [Example 30-5, 1-(3-Acetamido-phenyl)-6-(2-trifluoromethoxy-benzyl)-1,5-dihydro-pyrazolo[3,4-d]pyrimidin-4-one] | – | 26 | 97 | 10 to 500 |

— patent publication US8648085B2, “1, 5-dihydro-pyrazolo (3, 4-D) pyrimidin-4-one derivatives and their use as PDE9A mudulators for the treatment of CNS disorders” (Boehringer Ingelheim International GmbH, priority 2007, dated 2014)
